In US5712298A, “Fluoroalkoxy-substituted benzamides and their use as cyclic nucleotide phosphodiesterase inhibitors” (BYK Gulden Lomberg Chemische Fabrik GmbH, priority 1993, dated 1998):

Assays:
conscious guinea-pigs = experiment: Effect on dyspnoea and migration of proinflammatory cells into the airway lumen after allergic reaction of conscious guinea-pigs; assay type: in vivo, guinea-pig; conditions: 30 μmol/kg p.o.
Description: 2. Effect of dyspnoea and migration of proinflammatory (immunocompetent) cells from the blood vessels into the airway lumen after allergic reaction of conscious guinea-pigs
Immunocompetent blood cells (leucocytes) appear in the airway lumens under the influence of allergic, inflammatory reactions. This pathological migration can support itself, i.e. lead to chronic changes, and plays an important part as a pathological mechanism of chronic airway obstruction (of asthma) but also of allergic rhinitis and/or conjunctivitis. The inhibition of the migration by pharmaceuticals is an important therapeutic principle and is a measure of antiallergic or antiinflammatory actions.
The experimental animal methodology employed for the measurement of the acute effect of an allergic reaction on respiration and cell migration itself essentially follows the descriptions of P. A. Hutson et al. (Am. Rev. Respir. Dis., 137, 548, 1988) and J. P. Tarayre et al. (J. Parmacol. Meth., 23, 13, 1990) and also R. Beume et al. (Atemw. Lungenkrkh., 11, 324, 1985).
A defined guinea-pig collective is sensitized intraperitoneally to ovalbumin (20 μg+20 mg of Al(OH)3). 14 days later, the animals are tested:
0 h provocation of the allergic reaction, thoracographic latency time measurement until occurrence of dyspnoea, non-occurrence=protective action.
+24 h anaesthesia and bronchoalveolar lavage: Determination of the total cell number, counting of the differential cell picture in the lavage, determination of the protein content in the cell-free supernatant of the lavage.
The controlled used in each case was 1 random sample of sensitized animals: Placebo treatment+sham provocation or placebo treatment+provocation.
The compound of Example 1 (=compound 1), 30 μmol/kg p.o., acts on the parameters of this relation as follows: […]

PDE IV = experiment: Inhibition of PDE IV activity; assay type: biochemical
[1] = bronchoalveolar lavage +24 h after provocation
[2] = cell-free supernatant of lavage +24 h after provocation

SMILES: COc1cc(C(=O)Nc2c(Cl)cncc2Cl)ccc1OC(F)F [Compound 1, N-(3,5-Dichloropyrid-4-yl)-4-difluoromethoxy-3-methoxybenzamide]
- Passage of cells and protein after provocation (conscious guinea-pigs; base values = placebo + sham provocation): inhibits these passages to base values
- Eosinophilic granulocytes, median (conscious guinea-pigs; [1]): 1.2 × 10^6 /10 ml
- Eosinophilic granulocytes, median: bracketed value (relative to placebo + sham provocation = 1) (conscious guinea-pigs; [1]): 1.5
- Eosinophilic granulocytes, min./max. (conscious guinea-pigs; [1]): 0.6-2.5 × 10^6 /10 ml
- Macrophages, median (conscious guinea-pigs; [1]): 1.2 × 10^6 /10 ml
- Macrophages, median: bracketed value (relative to placebo + sham provocation = 1) (conscious guinea-pigs; [1]): 0.8
- Macrophages, min./max. (conscious guinea-pigs; [1]): 0.9-2.3 × 10^6 /10 ml
- Neutrophilic granulocytes, median (conscious guinea-pigs; [1]): 0.0 × 10^6 /10 ml
- Neutrophilic granulocytes, median: bracketed value (relative to placebo + sham provocation = 1) (conscious guinea-pigs; [1]): 0
- Neutrophilic granulocytes, min./max. (conscious guinea-pigs; [1]): 0.0-0.08 × 10^6 /10 ml
- Total leucocytes, median (conscious guinea-pigs; [1]): 2.5 × 10^6 /10 ml
- Total leucocytes, median: bracketed value (relative to placebo + sham provocation = 1) (conscious guinea-pigs; [1]): 1.1
- Total leucocytes, min./max. (conscious guinea-pigs; [1]): 1.5-4.2 × 10^6 /10 ml
- Protein content, median (conscious guinea-pigs; [2]): 4.1 mg/10 ml
- Protein content, median: bracketed value (relative to placebo + sham provocation = 1) (conscious guinea-pigs; [2]): 1.1
- Protein content, min./max. (conscious guinea-pigs; [2]): 2.6-11.0 mg/10 ml
- N, of which protected (conscious guinea-pigs; ovalbumin provocation, N = 14, non-occurrence of dyspnoea = protective action): 8 animals
- -log IC50 (PDE IV): 8.64

SMILES: O=C(Nc1c(Cl)cncc1Cl)c1ccc(OC(F)F)c(OC(F)F)c1 [Compound 2, N-(3,5-Dichloropyrid-4-yl)-3,4-bis-difluoromethoxybenzamide]
- -log IC50 (PDE IV): 8.42

SMILES: O=C(Nc1c(Cl)cncc1Cl)c1ccc(OC(F)F)c(OCC2CCC2)c1 [Compound 3, N-(3,5-Dichloropyrid-4-yl)-3-cyclobutylmethoxy-4-difluoromethoxybenzamide]
- -log IC50 (PDE IV): 8.74

SMILES: O=C(Nc1c(Cl)cncc1Cl)c1ccc(OC(F)F)c(OC2CCCC2)c1 [Compound 4, N-(3,5-Dichloropyrid-4-yl)-3-cyclopentyloxy-4-difluoromethoxybenzamide]
- -log IC50 (PDE IV): 9.18
